Measured values as given in ChEMBL document CHEMBL1122781, “[(Aminomethyl)aryloxy]acetic acid esters. A new class of high-ceiling diuretics. 1. Effects of nitrogen and aromatic nuclear substitution” (J Med Chem, 1984).

How the values were obtained:
[1] = tested on: Rattus norvegicus; test: Oral dose necessary to produce excretion of 2 mequiv of Na+/kg in rat urine in a 4-hr period after oral administration; inactive; assay type: ADME, organism-based; details: in vivo
[2] = tested on: Rattus norvegicus; test: Oral dose necessary to produce an excretion of 2 mequiv of Na+/kg in the rat urine in the 4-h period after peroral administration; assay type: ADME, organism-based; details: in vivo
[3] = tested on: Rattus norvegicus; test: Percent change of arterial blood pressure in spontaneously hypertensive rats at the dose of 300 mg/kg (p.o.) after […] (control BP(mm Hg)=214); assay type: functional; details: route oral
[4] = tested on: Rattus norvegicus; test: Percent change of arterial blood pressure in spontaneously hypertensive rats at the dose of 300 mg/kg (p.o.) after 24 h (control BP(mm Hg)=214); assay type: functional; details: route oral
[5] = tested on: Rattus norvegicus; test: Percent change of arterial blood pressure in spontaneously hypertensive rats at the dose of 300 mg/kg (p.o.) after 6 hr (control BP(mm Hg)=214); assay type: functional; details: route oral
[6] = tested on: Rattus norvegicus; test: Percent change of arterial blood pressure in spontaneously hypertensive rats at the dose of 30 mg/kg (p.o.) after […] (control BP(mm Hg)=210); assay type: functional; details: route oral
[7] = tested on: Rattus norvegicus; test: Percent change of arterial blood pressure in spontaneously hypertensive rats at the dose of 30 mg/kg (p.o.) after 24 hr (control BP(mm Hg)=210); assay type: functional; details: route oral
[8] = tested on: Rattus norvegicus; test: Percent change of arterial blood pressure in spontaneously hypertensive rats at the dose of 30 mg/kg (p.o.) after 6 hr (control BP(mm Hg)=210); assay type: functional; details: route oral
[9] = tested on: Rattus norvegicus; test: Percent change of arterial blood pressure in spontaneously hypertensive rats at the dose of 100 mg/kg (p.o.) after […] (control BP(mm Hg)=206); assay type: functional; details: route oral
[10] = tested on: Rattus norvegicus; test: Percent change of arterial blood pressure in spontaneously hypertensive rats at the dose of 100 mg/kg (p.o.) after 6 hr (control BP(mm Hg)=206); assay type: functional; details: route oral
[11] = tested on: Rattus norvegicus; test: Percent change of arterial blood pressure in spontaneously hypertensive rats at the dose of 100 mg/kg (p.o.) after 24 hr (control BP(mm Hg)=206); assay type: functional; details: route oral

Row | SMILES | ED2 [1] | ED2 [2] | other results
1 | CCOC(=O)COc1ccc(C(=O)c2cc(CN3CCS(=O)(=O)CC3)c(O)c(CN3CCS(=O)(=O)CC3)c2)c(Cl)c1Cl | Not Active |  | 
2 | CCOC(=O)COc1ccc(C(=O)c2ccc3c(c2)CNC(=O)O3)c(Cl)c1Cl | Not Active |  | 
3 | CN(C)Cc1cc(C(=O)c2ccc(OCC(=O)O)c(Cl)c2Cl)ccc1O | Not Active |  | 
4 | CCOC(=O)COc1ccc(C(=O)c2ccc(O)c(CN3CCS(=O)(=O)CC3)c2)c(Cl)c1Cl | Not Active |  | 
5 | CN(C)Cc1cc(C(=O)c2ccc(OCC(=O)O)c(Cl)c2Cl)cc(CN(C)C)c1O.Cl | Not Active |  | 
6 | CCOC(=O)COc1ccc(C(=O)c2cc(I)c(O)c(CN)c2)c(Cl)c1Cl.Cl |  | 1 mg/kg | 
7 | CCOC(=O)COc1ccc(C(=O)c2ccc(O)c(CN)c2)cc1.Cl |  | 10 mg/kg | 
8 | CCOC(=O)COc1ccc(C(=O)c2cc(Cl)c(O)c(CN)c2)c(Cl)c1Cl.Cl |  | 1 mg/kg | 
9 | CCOC(=O)COc1ccc(C(=O)c2ccc(CN)c(OC)c2)c(Cl)c1Cl.Cl | Not Active |  | 
10 | CCOC(=O)COc1ccc(C(=O)c2cc(C)c(O)c(CN)c2)c(Cl)c1Cl.Cl |  | 1 mg/kg | 
11 | CCOC(=O)COc1ccc(C(=O)c2cccc(CN)c2)c(Cl)c1Cl.Cl |  | 12 mg/kg | 
12 | CCOC(=O)COc1ccc(C(=O)c2ccc(CN)cc2)c(Cl)c1Cl.Cl | Not Active |  | 
13 | CCOC(=O)COc1ccc(C(=O)c2cccc(CN)c2O)c(Cl)c1Cl.Cl | Not Active |  | 
14 | CCOC(=O)COc1ccc(C(=O)c2cc(CN3CCCCC3)c(O)c(CN3CCCCC3)c2)c(Cl)c1Cl.Cl | Not Active |  | 
15 | CCOC(=O)COc1ccc(C(=O)c2ccc(O)c(CN3CCCCC3)c2)c(Cl)c1Cl.Cl | Not Active |  | 
16 | CCOC(=O)COc1ccc(C(=O)c2ccc(O)c(CN)c2)c2ccccc12.Cl |  | 15 mg/kg | 
17 | CCOC(=O)COc1ccc(C(=O)c2ccc(O)c(CN)c2)cc1Cl.Cl |  | 5 mg/kg | 
18 | CCOC(=O)COc1ccc(C(=O)c2ccc(O)c(CN3CCOCC3)c2)c(Cl)c1Cl.Cl | Not Active |  | 
19 | CCOC(=O)COc1ccc(C(=O)c2cc(CN3CCCC3)c(O)c(CN3CCCC3)c2)c(Cl)c1Cl.Cl | Not Active |  | 
20 | CCOC(=O)COc1ccc(C(=O)c2cc(CN)c(O)c(CN)c2)c(Cl)c1Cl.Cl |  | 11 mg/kg | 
21 | CCOC(=O)COc1ccc(C(=O)c2cc(CN(CC)CC)c(O)c(CN(CC)CC)c2)c(Cl)c1Cl.Cl | Not Active |  | 
22 | CCOC(=O)COc1ccc(C(=O)c2cc(CN3CCOCC3)c(O)c(CN3CCOCC3)c2)c(Cl)c1Cl.Cl | Not Active |  | 
23 | CCOC(=O)COc1ccc(C(=O)c2ccc(O)c(CN)c2)c(Cl)c1.Cl |  | 5 mg/kg | 
24 | CCOC(=O)COc1ccc(C(=O)c2ccc(O)c(CN)c2)c(C)c1C.Cl |  | 6 mg/kg | 
25 | CCOC(=O)COc1ccc(C(=O)c2cc(CN(C)C)c(O)c(CN(C)C)c2)c(Cl)c1Cl.Cl |  | 7 mg/kg | 
26 | Cl.NS(=O)(=O)c1cc(C(=O)O)c(NCc2ccco2)cc1Cl [FUROSEMIDE HYDROCHLORIDE] |  |  | Change [3]: -21%; Change [4]: -37%; Change [5]: -31%; Change [6]: -10%; Change [7]: 1%; Change [8]: -6%; Change [9]: -11%; Change [10]: -3%; Change [11]: -12%

Continued, in another order:

Row | ED2 [1] | ED2 [2] | SMILES | other results
27 | Not Active |  | CCOC(=O)COc1ccc(C(=O)c2ccc(O)c(C(=O)O)c2)c(Cl)c1Cl | 
28 | Not Active |  | CCOC(=O)COc1ccc(C(=O)c2ccc(O)c(CO)c2)c(Cl)c1Cl | 
29 | Not Active |  | CCOC(=O)COc1ccc(C(=O)c2ccc(O)c(CNC(C)=O)c2)c(Cl)c1Cl | 
30 | Not Active |  | CCOC(=O)COc1ccc(C(=O)c2ccc(O)c(C(N)=O)c2)c(Cl)c1Cl | 
31 |  | 34 mg/kg | CCOC(=O)COc1ccc(C(=O)c2ccc(O)c(CN=C(N)N)c2)c(Cl)c1Cl | 
32 | Not Active |  | CCOC(=O)COc1ccc(C(=O)c2ccc(O)c(C[N+](C)(C)C)c2)c(Cl)c1Cl.[Cl-] | 
33 | Not Active |  | Br.CCOC(=O)COc1ccc(C(=O)c2ccc(OC)c(CN)c2)c(Cl)c1Cl | 
34 | Not Active |  | Cl.NCc1cc(C(=O)c2ccc(OCC(=O)O)c(Cl)c2Cl)ccc1O | 
35 |  | 16 mg/kg | CCOC(=O)COc1ccc(C(=O)c2ccc(O)c(CN(C)C)c2)c(Cl)c1Cl.Cl | 
36 |  | 50 mg/kg | CCOC(=O)COc1ccc(C(=O)c2ccc(Cl)c(CN)c2)c(Cl)c1Cl.Cl | 
37 |  | 3 mg/kg | CCOC(=O)COc1ccc(C(=O)c2cc(CN)ccc2O)c(Cl)c1Cl.Cl | 
38 | Not Active |  | CCOC(=O)COc1ccc(C(=O)c2ccc(O)c(CN3CCCC3)c2)c(Cl)c1Cl.Cl | 
39 |  | 1.2 mg/kg | CCOC(=O)COc1ccc(C(=O)c2ccc(O)c(C(C)N)c2)c(Cl)c1Cl.Cl (stereo not given) | 
40 | Not Active |  | CCOC(=O)COc1ccc(C(=O)c2ccc(O)c(CN(CC)CC)c2)c(Cl)c1Cl.Cl | 
41 | Not Active |  | Br.CCOC(=O)COc1ccc(C(=O)c2ccc(CN)c(O)c2)c(Cl)c1Cl | 
42 |  | 4 mg/kg | CCOC(=O)COc1ccc(C(=O)c2ccc(O)c(CNO)c2)c(Cl)c1Cl.Cl | 
